In series [1] the test system is red blood cells. In kind it is cell-based, pig. On the procedure: A series of parameters such as charge number, hydrophobicity, sequence length, and amphipathicity can affect the hemolytic activity of peptides against red blood cells. The minimal hemolytic concentration (MHC) refers to the minimum concentration that causes hemolysis of 10 % of red blood cells, and is often used to evaluate the hemolytic activity of the peptides. Except for SFK3, the percentage of hemolysis at 128 μM was below 5% for all peptides. Hemolysis of the erythrocytes occurred after incubation with Triton X‐100, with complete fragmentation of the erythrocytes and a bright red color of the reaction system (Figure 2B,C and Table S5).
The hemolytic activity of the peptide was calculated by measuring the level of […] released from mammalian red blood cell lysis induced by the peptide, [44]. Fresh porcine blood was collected from the jugular vein and washed with PBS three times, and red blood cells were collected. A red blood cell suspension of 10% (v/v) concentration was prepared in 10 mM PBS (pH = 7.4). After mixing with different concentrations of peptides in equal volume, they were incubated at 37°C for 2 h. Red blood cells treated with PBS and 0.1% Triton X‐100 were used as negative and positive controls, respectively. The assay was repeated three times. After the sample was centrifuged, the supernatant was transferred to a new 96‐well plate, and the optical density at 570 nm was measured using a microplate reader. Hemolysis was calculated as follows: Hemolytic activity(%)=ODtest sample−ODnegative control/ODpositive control−ODnegative control×100%

Series [2] has as its system S. aureus 6538. In kind it is cell-based, Staphylococcus aureus. The procedure:
(§1) MICs were determined to evaluate the antimicrobial activities of the peptides. The bacteria were inoculated into Mueller‐Hinton broth (MHB) medium in advance and placed in a shaker at 37°C until the logarithmic growth phase. The optical density value at OD600 of the bacterial suspension was adjusted to 0.4, and then diluted 1000 times with sterile MHB medium. Subsequently, the peptides with concentrations of 0.25–128 μM were prepared using bovine serum albumin (BSA) solution (0.2% BSA and 0.01% acetic acid) as the solvent on a 96‐well plate. Different concentrations of peptides and bacterial liquids were mixed in equal volumes. MHB medium containing bacteria was used as a positive control. MHB medium without bacteria was used as a negative control. Then, the mixture of peptides and bacteria was cultured in an incubator at 37°C for 18–24 h. The optical density of each well was measured at 492 nm using a microplate reader. The lowest drug concentration corresponding to a culture mixture with an optical density of less than 0.1 is the MIC of the peptide. The assay was repeated three times in duplicate.

For series [3], the system named is S. aureus 1882. The format is cell-based, Staphylococcus aureus. On the procedure: as §1
The test system of series [4] is BALB/c mice. Briefly: Biosafety evaluation, tail vein injection. In kind it is in vivo, mouse. To be noted: tail vein 5 mg/kg once daily, 7 days, n = 6. The procedure: Twelve male BALB/c mice (weighing approximately 20 g) were randomly divided into two groups (control and peptide‐treated groups). Mice in the peptide‐treated group were injected intravenously into the tail vein with 5 mg/kg peptide solution once daily. In the control group, mice were injected once daily with saline via the tail vein. The experiment was continued for 7 days, and changes in body weight were recorded. Mice were anesthetized with ether and euthanized 12 h after the seventh tail vein injection. Blood was collected from the orbital vein and centrifuged, and the serum was analyzed biochemically. The livers and kidneys of mice were collected and weighed. The organs were then fixed in a 4% paraformaldehyde solution and analyzed by H&E staining.

The subject of series [5] is S. epidermidis 12228. The format is cell-based, Staphylococcus epidermidis. On the procedure: as §1
In series [6] the test system is BALB/c mice. Briefly: Biosafety evaluation, intraperitoneal injection. The format is in vivo, mouse. Conditions: i.p. 15 and 30 mg/kg once daily, 7 days, n = 6, except 15 mg/kg group for urea. The procedure:
Eighteen male BALB/c mice (weighing approximately 30 g) were randomly divided into three groups (control, low‐dose, and high‐dose groups). Mice in the low‐ and high‐dose groups were intraperitoneally injected with 15 and 30 mg/kg polypeptide solutions, respectively, once daily. Mice in the control group were injected intraperitoneally with 150 µl of saline once daily. The experiment lasted for 7 days, and the changes in the body weight of the mice were recorded. After the seventh intraperitoneal injection for another 12 h, the mice were anesthetized with ether and euthanized. Blood was collected from the orbital vein, and serum was analyzed by biochemical analysis after centrifugation. The livers and kidneys of mice were collected and weighed. Afterward, the organs were fixed in a 4% paraformaldehyde solution and stained with H&E for analysis.

Series [7] has as its system S. aureus ATCC 6538. The format is cell-based, Staphylococcus aureus. The procedure:
as §1
The assay was performed to analyze the salt ion stability of SFK2 by measuring changes in MIC values in different physiological salt concentrations, [46].

The subject of series [8] is P. aeruginosa 15442. The format is cell-based, Pseudomonas aeruginosa. On the procedure:
as §1

Series [9] relates to P. aeruginosa 27853. The format is cell-based, Pseudomonas aeruginosa. On the procedure:
as §1

The subject of series [10] is E. coli K88. In kind it is cell-based, Escherichia coli. Conditions: microbroth dilution, MHB, 37°C, 18–24 h, OD492 < 0.1; repeated three times in duplicate. On the procedure:
as §1

For series [11], the system named is E. coli 25922. The format is cell-based, Escherichia coli. The procedure: as §1
Series [12] concerns E. coli K99. In kind it is cell-based, Escherichia coli. Conditions: microbroth dilution, MHB, 37°C, 18–24 h, OD492 < 0.1; repeated three times in duplicate. The procedure: as §1

≈ marks a conversion by molar mass, not a printed value. Peptide text beside a SMILES is read from it.

With `CC[C@H](C)[C@H](NC(=O)[C@H](CCCNC(=N)N)NC(=O)[C@H](CO)NC(=O)[C@H](CC(C)C)NC(=O)[C@H](Cc1ccccc1)NC(=O)[C@H](Cc1ccccc1)NC(=O)[C@H](Cc1ccccc1)NC(=O)CNC(=O)CNC(=O)CNC(=O)[C@H](CO)NC(=O)[C@H](C)NC(=O)[C@H](CCCNC(=N)N)NC(=O)[C@@H](NC(=O)[C@H](Cc1c[nH]c2ccccc12)NC(=O)[C@H](Cc1ccc(O)cc1)NC(=O)[C@@H](N)CO)C(C)C)C(=O)N[C@@H](Cc1ccccc1)C(=O)N[C@@H](CCCCN)C(=O)N[C@@H](CCCCN)C(N)=O` [SFK2] (H-SYWVRASGGGFFFLSRIFKK-NH2), the MHC entry in series [1] is reported as “>128 μM”. For the same molecule, the “MIC S. aureus 6538” value in series [2] came out at 2 µM (≈ 4.71 µg/mL). The “MIC S. aureus 1882” value in series [3] was 2 µM (≈ 4.71 µg/mL). The “Toxic side effects after tail vein injection” value in series [4] was “negligible toxic side effects”. Also, the “MIC S. epidermidis 12228” value in series [5] is above 64 µM. Also, the “Relative organ indices and liver- and kidney function-related indices (Crea, urea, AST, ALT, TBIL, ALP)” value in series [6] is on record as “no significant differences”. In addition, in series [7], the “MIC of SFK2 against S. aureus ATCC 6538, Control” value was 2 µM; the “MIC of SFK2 against S. aureus ATCC 6538, FeCl3” value is listed as 4 µM; the “MIC of SFK2 against S. aureus ATCC 6538, KCl” value was 4 µM; the “MIC of SFK2 against S. aureus ATCC 6538, MgCl2” value was 4 µM. Also, in series [7], the “MIC of SFK2 against S. aureus ATCC 6538, NH4Cl” value turned out to be 4 µM; the “MIC of SFK2 against S. aureus ATCC 6538, NaCl” value is recorded as 4 µM; the “MIC of SFK2 against S. aureus ATCC 6538, ZnCl2” value was 2 µM. Besides, the “MIC P. aeruginosa 15442” value in series [8] was above 64 µM. Besides, the “MIC P. aeruginosa 27853” value in [9] was above 64 µM. Further, in [10], the “MIC E. coli K88” value is above 64 µM. In addition, the “MIC E. coli 25922” value in series [11] was above 64 µM. In series [12], the “MIC E. coli K99” value is above 64 µM.

The values are drawn from paper PMC11211671, “Phage‐displayed heptapeptide sequence conjugation significantly improves the specific targeting ability of antimicrobial peptides against Staphylococcus aureus” (mLife, 2024).
